Data published in doi:10.1101/2024.04.10.588849v1 (biorxiv, 2024).

Biological target: T1, recombinant human MPST (3-mercaptopyruvate sulfurtransferase) (Homo sapiens, UniProt P25325)
T1 sequence (P25325 1-317 isoform P25325-2): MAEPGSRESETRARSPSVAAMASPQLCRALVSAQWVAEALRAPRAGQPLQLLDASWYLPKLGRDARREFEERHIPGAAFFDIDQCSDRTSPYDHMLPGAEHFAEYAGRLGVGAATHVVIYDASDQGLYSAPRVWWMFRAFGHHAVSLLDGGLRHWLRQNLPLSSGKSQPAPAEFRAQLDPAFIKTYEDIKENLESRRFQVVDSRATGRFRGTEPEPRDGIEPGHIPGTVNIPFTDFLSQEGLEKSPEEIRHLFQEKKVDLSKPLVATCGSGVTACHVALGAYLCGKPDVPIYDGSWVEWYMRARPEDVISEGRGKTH
Experiment: isothermal titration calorimetry
Type: binding

## C[N+](C)(C)[C@@H](Cc1c[nH]c(=S)[nH]1)C(=O)[O-] [ergothioneine]
  Kd: 3.2 µM
